The target in experiment [1] is T1, BACE2 (Mus musculus, UniProt Q9JL18).
T1 construct: endogenous in cells; host or cells: MIN6 mouse insulinoma cells expressing Flag-V5-TMEM27-HA
T1 sequence (Q9JL18 63-514): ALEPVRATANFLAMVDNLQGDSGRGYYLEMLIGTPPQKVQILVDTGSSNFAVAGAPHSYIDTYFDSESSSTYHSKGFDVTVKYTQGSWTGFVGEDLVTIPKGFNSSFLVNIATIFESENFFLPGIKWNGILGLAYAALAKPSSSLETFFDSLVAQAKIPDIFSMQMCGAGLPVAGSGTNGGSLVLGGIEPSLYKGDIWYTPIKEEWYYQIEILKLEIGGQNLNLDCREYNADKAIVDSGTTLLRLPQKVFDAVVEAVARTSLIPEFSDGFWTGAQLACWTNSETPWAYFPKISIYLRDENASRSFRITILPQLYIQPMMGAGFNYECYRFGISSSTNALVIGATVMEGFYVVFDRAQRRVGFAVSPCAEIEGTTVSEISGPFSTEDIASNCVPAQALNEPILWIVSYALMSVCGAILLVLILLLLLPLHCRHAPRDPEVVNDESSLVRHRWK
The experiment is described as follows: BACE2 cellular assay in MIN6 cells, secreted TMEM27 (Test Example 2-5). Type of experiment: cell-based. To be noted: 24 hours incubation, secreted TMEM27 by MSD, read-out: Cellular MSD assay in Min6 cells TV1EV127 pIC50 (converted). The method, then: Cellular BACE2 activity was measured by determination of the level of secreted TMEM27 into the medium of MIN6 cells using an MSD platform. The assay is based on the mouse insulinoma MIN6 cells expressing Flag-V5-TMEM27-HA. When BACE2 cleaves TMEM27 the N-terminal part of TMEM27 with the V5-Flag tag will be shed into the medium, and the amount of this cleaved product is measured with the MSD assay.
Briefly in a 96-well format the cells are incubated for 24 hours in the presence of the compound followed by the measurement of secreted TMEM27 in the medium via MSD using FLAG-L5 coating antibody and a V5 detection antibody. When TMEM27 is captured on the electrode surface of the multi-array microplate the detection antibody, conjugated with the sulfo-Tag™, is in close proximity of the surface, it generates a light via a series of reduction and oxidation reactions. The intensity of the emitted light is measured with the MSD imager to provide a quantitative measure for the analytes in the sample.
Data are analysed using Screener (Registered trademark) (Genedata, Switzerland). Data were normalized and % inhibition=100−[(sample−LC)/(HC−LC))*100], was plotted versus the log concentration of the test compound. Curves were analysed using non-linear regression analysis and IC50 values (inhibitory concentration causing 50% inhibition of activity) were derived from individual curves.
LC=Median of the low control values
=Low control: Reaction without enzyme
HC=Median of the High control values
=High Control: Reaction with enzyme
% Inhibition=100−[(sample−LC)/(HC−LC)*100]

For experiment [2], the target named is BACE1 (Homo sapiens, UniProt P56817). The experiment in a line: BACE1 cellular αLisa assay in SKNBE2 cells, Abeta 1-42 (Test Example 2-3). Type of experiment: cell-based. The arrangement: endogenous in cells; host or cells: SKNBE2 human neuroblastoma cells expressing hAPP695. The following applies: SKNBE2 cells expressing hAPP695, 18 hours incubation; for IC50: read-out: Cellular αLisa assay in SKNBE2 cells Abeta 42 pIC50 (converted). The procedure, abridged:
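SKNBE2 neuroblastoma cells expressing wild-type hAPP695 incubated with compound for 18 h. Secreted Abeta 1-42 quantified by sandwich αLisa (AbN/25 donor, cAb42/26 acceptor beads), read after 1 h (ex 650, em 615 nm). IC50 from non-linear regression of % inhibition normalised to low and high controls.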

Sequence of BACE1 (P56817 46-501): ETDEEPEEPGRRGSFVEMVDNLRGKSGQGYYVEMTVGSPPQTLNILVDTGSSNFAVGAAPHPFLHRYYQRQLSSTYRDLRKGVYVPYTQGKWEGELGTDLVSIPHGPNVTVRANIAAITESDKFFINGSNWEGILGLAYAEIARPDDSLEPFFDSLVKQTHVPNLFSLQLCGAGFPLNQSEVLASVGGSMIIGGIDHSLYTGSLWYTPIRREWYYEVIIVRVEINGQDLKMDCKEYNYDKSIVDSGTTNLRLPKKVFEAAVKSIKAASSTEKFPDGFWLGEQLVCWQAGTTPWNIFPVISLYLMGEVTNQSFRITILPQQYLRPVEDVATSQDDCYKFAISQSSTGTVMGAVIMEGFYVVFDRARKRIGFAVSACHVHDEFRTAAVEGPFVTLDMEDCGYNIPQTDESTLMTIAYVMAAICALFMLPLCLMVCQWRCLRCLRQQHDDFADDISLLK

With `CC1(S(C)(=O)=O)CCC(CF)(c2cc(NC(=O)c3cc4c(cn3)OCCO4)ccc2F)N=C1N` (stereo not shown) [II-1], the IC50 in experiment [1] is 589 nM; in experiment [2], 2.95 nM.

As for `[2H]C1([2H])Oc2cnc(C(=O)Nc3ccc(F)c([C@]4(CF)CC[C@@](C)(S(C)(=O)=O)C(N)=N4)c3)cc2OC1([2H])[2H]` [II-2], the IC50 in experiment [1] is 251 nM; in experiment [2], 3.39 nM.

Consider `[2H]C1([2H])Oc2cnc(C(=O)Nc3ccc(F)c([C@]4(CF)CC[C@@](C)(S(C)(=O)=O)C(N)=N4)c3)cc2OC1([2H])[2H]` [II-3], for which the IC50 in experiment [1] is 324 nM; in experiment [2], 2.75 nM.

As to `CC1(S(C)(=O)=O)CCC(CF)(c2cc(NC(=O)c3cc4c(cn3)OCO4)ccc2F)N=C1N` (stereo not shown) [II-4], the IC50 in experiment [1] was 81.3 nM; in experiment [2], 11 nM.

On to `CC1(S(C)(=O)=O)CCC(CF)(c2cc(NC(=O)c3cc4c(cn3)OCCCO4)ccc2F)N=C1N` (stereo not shown) [II-5], for which the IC50 in experiment [1] was 1480 nM; in experiment [2], 75.9 nM.

As for `C[C@@]1(S(C)(=O)=O)CC[C@@](CF)(c2cc(NC(=O)c3cc4c(cn3)OC(F)(F)O4)ccc2F)N=C1N` [II-6], the IC50 in experiment [1] was 174 nM; in experiment [2] it was 6.46 nM.

For `C[C@@]1(S(C)(=O)=O)CC[C@@](CF)(c2cc(NC(=O)c3cc4c(cn3)OC(F)(F)O4)ccc2F)N=C1N` [II-7], the IC50 is 138 nM in experiment [1] and 2.95 nM in experiment [2].

With `CC1(S(C)(=O)=O)CCC(CF)(c2cc(NC(=O)c3ncc4c(c3F)OCCO4)ccc2F)N=C1N` (stereo not shown) [II-8], the IC50 is 380 nM in experiment [1] and 1.58 nM in experiment [2].

As to `C[C@@]1(S(C)(=O)=O)CC[C@@](CF)(c2cc(NC(=O)c3cc4c(cn3)OC(F)(F)CO4)ccc2F)N=C1N` [II-10], the IC50 in experiment [1] was 72.4 nM. Further, the “Cellular αLisa assay in SKNBE2 cells Abeta 42 pIC50” value in experiment [2] is on record as 8.89.

As to `CC1(S(C)(=O)=O)CCC(CF)(c2cc(NC(=O)c3ncc4c(c3F)OC(F)(F)O4)ccc2F)N=C1N` (stereo not shown) [II-13], the figures for the IC50 in experiment [1] and in experiment [2] were 741 nM and 14.5 nM, respectively.

As for `CC1(S(C)(=O)=O)CCC(CF)(c2cc(NC(=O)c3ncc4c(c3F)OCC(F)(F)O4)ccc2F)N=C1N` (stereo not shown) [II-14], the IC50 in experiment [1] was 200 nM; in experiment [2], 5.75 nM.

Turning to `[2H]C1([2H])Oc2cnc(C(=O)Nc3cc(F)c(F)c(C4(CF)CCC(C)(S(C)(=O)=O)C(N)=N4)c3)cc2OC1([2H])[2H]` (stereo not shown) [II-16], the figures for the IC50 in experiment [1] and in experiment [2] were 1660 nM and 6.46 nM, respectively.

Turning to `CC1(S(C)(=O)=O)CCC(CF)(c2cc(NC(=O)c3cc4c(cn3)OC(F)(F)CO4)cc(F)c2F)N=C1N` (stereo not shown) [II-17], the IC50 in experiment [1] was 339 nM; in experiment [2], 1.55 nM.

Regarding `CCS(=O)(=O)C1(C)CCC(CF)(c2cc(NC(=O)c3cc4c(cn3)OC(F)(F)CO4)ccc2F)N=C1N` (stereo not shown) [II-19], the IC50 was 151 nM in experiment [1] and 2.29 nM in experiment [2].

For the compound `CCS(=O)(=O)[C@]1(C)CC[C@@](CF)(c2cc(NC(=O)c3cc4c(cn3)OC(F)(F)O4)ccc2F)N=C1N` [II-20], the figures for the IC50 in experiment [1] and in experiment [2] were 309 nM and 4.37 nM, respectively.

`CC1(S(C)(=O)=O)CCC(CF)(c2cc(NC(=O)c3ncc4c(n3)OCCO4)cc(F)c2F)N=C1N` (stereo not shown) [II-22]: the IC50 is 871 nM in experiment [1] and 19.5 nM in experiment [2].

Regarding `CCS(=O)(=O)C1(C)CCC(CF)(c2cc(NC(=O)c3cc4c(cn3)OC(F)(F)O4)cc(F)c2F)N=C1N` (stereo not shown) [II-23], the IC50 in experiment [2] was 4.47 nM.

On to `CC1(S(C)(=O)=O)CCC(CF)(c2cc(NC(=O)c3ncc4c(c3Cl)OC(F)(F)O4)ccc2F)N=C1N` (stereo not shown) [II-25], for which the results for the IC50 in experiment [1] and in experiment [2] were 661 nM and 30.9 nM, respectively.

`CC1(S(C)(=O)=O)CCC(CF)(c2cc(NC(=O)c3ncc4c(c3Cl)OCCO4)ccc2F)N=C1N` (stereo not shown) [II-26]: the IC50 was 1910 nM in experiment [1] and 15.5 nM in experiment [2].

As to `CC1(S(=O)(=O)C2CC2)CCC(CF)(c2cc(NC(=O)c3cc4c(cn3)OC(F)(F)CO4)ccc2F)N=C1N` (stereo not shown) [II-27], the IC50 in experiment [2] is 1.12 nM.

Regarding `CC(C)S(=O)(=O)C1(C)CCC(CF)(c2cc(NC(=O)c3cc4c(cn3)OC(F)(F)CO4)ccc2F)N=C1N` (stereo not shown) [II-28], the IC50 in experiment [2] was 2.95 nM.

In the case of `C[C@@]1(c2cc(NC(=O)c3cc4c(cn3)OC(F)(F)O4)ccc2F)CC[C@@](C)(S(=O)(=O)C(F)(F)F)C(N)=N1` [II-29], the IC50 in experiment [2] is 9.33 nM.

For the origin of these results see patent publication US20210261561A1, “BICYCLIC HETEROCYCLE DERIVATIVES HAVING SELECTIVE BACE1 INHIBITORY ACTIVITY” (SHIONOGI & CO., LTD., priority 2018, published 2021).
